Conditions in one data set: not given
Turning to `CO[C@H](C(=O)[C@@H](O)[C@@H](C)O)C1Cc2cc3cc(O[C@H]4C[C@@H](O[C@H]5C[C@@H](O)[C@H](O)[C@@H](C)O5)[C@@H](O)[C@@H](C)O4)c(C)c(O)c3c(O)c2C(=O)[C@H]1O[C@H]1C[C@@H](O[C@H]2C[C@@H](O[C@H]3C[C@](C)(O)[C@H](O)[C@@H](C)O3)[C@H](O)[C@@H](C)O2)[C@H](O)[C@@H](C)O1` (stereo partly drawn), the melting point is 182 °C.

`c1nnn[nH]1` displayed a melting point of 157 °C.

The compound `CCN(CC)C(=O)c1ccc(O)c(OC)c1` registered a melting point of 95 °C.

`C[Si]1(C)O[Si](C)(C)O[Si](C)(C)O[Si](C)(C)O[Si](C)(C)O1` showed a boiling point of 210 °C, a log10 Henry constant (atm·m³/mol) of 1.52, a log10 vapour pressure (mmHg) of -0.699 and a melting point of -38 °C.

In turn, `Nc1ccc2cc3ccccc3cc2c1` yielded a log10 Koc (L/kg) of 4.45 and a melting point of 239 °C.

Consider `CC(=O)/C(C)=N/O`, for which the boiling point amounted to 186 °C and the melting point came to 76.8 °C.

`CCCC(Br)C(=O)OCC` (stereo not drawn) came in with a boiling point of 191 °C.

As for `c1ccc2c(c1)CC1c3ccccc3CCN1C2` (stereo not drawn), the melting point is 85 °C and the ready biodegradability entry is “not readily biodegradable”.

With `CCOC(C)CO` (stereo not drawn), the boiling point was determined as 140 °C.

In turn, `Cc1ccccc1C#N` yielded a boiling point of 205 °C, a log10 vapour pressure (mmHg) of -0.348 and a melting point of -13.5 °C.

`COC(=O)c1ccccc1S(=O)(=O)NC(=O)Nc1nc(C)cc(C)n1` returned a log10 Koc (L/kg) of 1.62 and a melting point of 204 °C.

`CC(C)NCC(O)COc1ccc(CCOCC2CC2)cc1` (stereo not drawn): the melting point came out at 71 °C.

`CC#CCO` gave a boiling point of 148 °C and a melting point of -2.2 °C.

The compound `CCCCCCCCCCCCCCCCC=O` yielded a melting point of 36 °C.

On to `c1ccc2c(c1)cc1ccc3cccc4ccc2c1c34`, for which the boiling point came to 495 °C, the log10 Henry constant (atm·m³/mol) was -6.34, the log10 Koc (L/kg) amounted to 5.95 and the log10 biodegradation half-life (days) was 2.35. Also, the log10 vapour pressure (mmHg) was -8.26 and the melting point is 176 °C.

In the case of `CC(=O)OC(C)OC(C)=O`, the boiling point was 169 °C and the melting point was 18.9 °C.

On to `Cc1ccc2cccc([N+](=O)[O-])c2n1`, for which the melting point was 140 °C.

As for `CCN=C=O`, the boiling point was 60 °C.

In turn, `Clc1cccc(-c2cc(Cl)cc(Cl)c2)c1` gave a log10 Henry constant (atm·m³/mol) of -3.77.

With `Oc1cccc2[nH]ccc12`, the melting point came out at 100 °C.

In turn, `FC(F)COC(F)F` displayed a boiling point of 55.3 °C and a log10 vapour pressure (mmHg) of 2.36.

As to `CC(C)C(C)C`, the boiling point was determined as 57.9 °C, the log10 vapour pressure (mmHg) came to 2.37 and the melting point is -129 °C.

With `CCC(=O)C(C)(C)C`, the boiling point came to 126 °C and the melting point is -45 °C.

The compound `Cc1ccc(O)c(C=O)c1` gave a boiling point of 218 °C and a melting point of 56 °C.

`OC(CNc1ccccn1)c1ccccc1` (stereo not drawn) displayed a melting point of 83.5 °C.

On to `Clc1c(Cl)c(Cl)c2ccccc2c1Cl`, for which the log10 Koa came to 8.3, the log10 vapour pressure (mmHg) was -5.54 and the melting point came out at 198 °C.

Take `CC(=O)c1ccc(C)cc1`: the boiling point was 226 °C, the melting point amounted to 28 °C and the ready biodegradability result was “readily biodegradable”.

Turning to `CC(O)CC(C)O` (stereo not drawn), the boiling point was found to be 199 °C and the ready biodegradability entry was “readily biodegradable”.

For `CCCCC(CC)COP(=O)(Oc1ccccc1)Oc1ccccc1` (stereo not drawn), the boiling point is 375 °C, the log10 Henry constant (atm·m³/mol) is -4.27, the log10 vapour pressure (mmHg) is -4.3 and the melting point was -54 °C. Further, the ready biodegradability result was “not readily biodegradable”.

`CCCN(CCC)c1c([N+](=O)[O-])cc(S(N)(=O)=O)cc1[N+](=O)[O-]`: the log10 Koc (L/kg) came to 3.4, the melting point was 141 °C and the ready biodegradability entry is “not readily biodegradable”.

The compound `Cc1cc(C2(c3ccc(O)c(C)c3)OC(=O)c3ccccc32)ccc1O` yielded a melting point of 223 °C.

`NC(=O)c1cccc([N+](=O)[O-])c1` gave a boiling point of 312 °C, a log10 Koc (L/kg) of 1.95 and a melting point of 143 °C.

Regarding `CCCCCCCC(=O)OC`, the boiling point amounted to 193 °C, the log10 Henry constant (atm·m³/mol) is -3.11, the log10 vapour pressure (mmHg) was -0.267 and the melting point is -40 °C. In addition, the ready biodegradability result was “not readily biodegradable”.

Take `CCC(CO)(CO)[N+](=O)[O-]`: the melting point was determined as 57.5 °C.

As for `CCOC(=O)CCCC(=O)OCC`, the boiling point amounted to 236 °C, the log10 vapour pressure (mmHg) is -0.793 and the melting point was -24.1 °C.

Compound `C[C@@H]1O[C@@H](O[C@@H]2C=C3CC[C@@H]4[C@H](CC[C@]5(C)[C@@H](c6ccc(=O)oc6)CC[C@]45O)[C@@]3(C)CC2)[C@H](O)[C@H](O)[C@H]1O` returned a melting point of 221 °C.

In turn, `COC(=O)c1cccc(Br)c1` gave a melting point of 32 °C.

On to `O=C(Nc1ccc(Cc2ccc(NC(=O)N3CC3)cc2)cc1)N1CC1`, for which the ready biodegradability entry is listed as “not readily biodegradable”.

Turning to `Nc1ccc(Cl)cc1C(=O)O`, the ready biodegradability entry was “not readily biodegradable”.

In the case of `O=[N+]([O-])c1ccc(O)cc1`, the boiling point amounted to 279 °C, the log10 Henry constant (atm·m³/mol) was -9.38, the log10 Koc (L/kg) is 2.37 and the log10 vapour pressure (mmHg) is -4.01. The melting point was 114 °C and the ready biodegradability entry is “not readily biodegradable”.

`CCCCCCCCCCCCOS(=O)(=O)[O-].[Na+]` gave a melting point of 206 °C.

On to `CCCCCCCCCCCC(=O)OCC(O)C1OCC(O)C1O` (stereo not drawn), for which the ready biodegradability result was “readily biodegradable”.

The compound `Brc1cc(Br)c(Br)c(Br)c1` registered a boiling point of 329 °C and a melting point of 99.5 °C.

In turn, `O=[N+]([O-])c1ccsc1` had a boiling point of 225 °C and a melting point of 78.5 °C.

For `CCCCC(CC)COP(=O)(O)OCC(CC)CCCC` (stereo not drawn), the melting point was -50 °C and the ready biodegradability result is on record as “not readily biodegradable”.

Compound `COc1ccc(C=O)c2ccccc12` registered a melting point of 34.8 °C.

On to `O=C1CCc2cccc3c2N1CC3`, for which the log10 vapour pressure (mmHg) is -5.92 and the melting point stood at 112 °C.

For the compound `CCCCCCCCCCCCCCCCCCCCCC(=O)O`, the melting point was 81 °C.

Consider `c1cncc([C@@H]2CCCCN2)c1`, for which the boiling point was determined as 276 °C and the melting point was found to be 9 °C.

For the compound `CCCCCCCCCCCCCCCCCC(=O)OCC(O)[C@H]1OC[C@@H](O)[C@@H]1O` (stereo partly drawn), the ready biodegradability result is “readily biodegradable”.

Compound `CSc1ccc(N)cc1` gave a boiling point of 272 °C.

In the case of `CC(CCN(C)C)N(C)C` (stereo not drawn), the boiling point was found to be 165 °C.

`Cc1ccc(CO)c(C)c1` yielded a boiling point of 232 °C and a melting point of 22 °C.

`C=CCOC(=O)C(=C)C`: the log10 vapour pressure (mmHg) was found to be 0.761 and the ready biodegradability result was “readily biodegradable”.

For `CN(C(=O)COc1nc2ccccc2s1)c1ccccc1`, the log10 vapour pressure (mmHg) was -8.32 and the melting point was 135 °C.

Compound `CCCCCCCOC(C)=O` had a boiling point of 193 °C and a melting point of -50.2 °C.

`Clc1cc(Cl)c2c(c1Cl)Oc1ccccc1O2`: the log10 Henry constant (atm·m³/mol) is -4.44, the log10 Koa was 8.97, the log10 vapour pressure (mmHg) is -6.12 and the melting point is 128 °C.

For `COC(=O)Nc1nc2ccc(C(=O)c3ccc(F)cc3)cc2[nH]1`, the melting point came to 260 °C.

Turning to `CCN(CC)c1ccc(C=O)cc1`, the melting point is 41 °C and the ready biodegradability entry is “not readily biodegradable”.

As for `CCCCOC(=O)C(C)Oc1ccc(Oc2ccc(C(F)(F)F)cn2)cc1` (stereo not drawn), the log10 Koc (L/kg) came to 3.62, the log10 vapour pressure (mmHg) was -6.5 and the melting point was found to be 9 °C.

`C=COC(=O)C=C`: the boiling point stood at 91 °C.

`CCOc1ccc(NC(N)=O)cc1` gave a melting point of 174 °C.

Still in this data set, the particulars now being: fish.
`C[Si]1(C)O[Si](C)(C)O[Si](C)(C)O[Si](C)(C)O[Si](C)(C)O1` showed a log10 biotransformation half-life (days) of 2.74.

For `c1ccc2c(c1)cc1ccc3cccc4ccc2c1c34`, the log10 biotransformation half-life (days) turned out to be 0.05.

With `Clc1c(Cl)c(Cl)c2ccccc2c1Cl`, the log10 BCF was 3.7 and the log10 biotransformation half-life (days) came to 1.2.

`CCCCC(CC)COP(=O)(Oc1ccccc1)Oc1ccccc1` (stereo not drawn) displayed a log10 BCF of 2.49 and a log10 biotransformation half-life (days) of -0.15.

The compound `Cc1cc2ccccc2c2ccccc12` showed a log10 biotransformation half-life (days) of 0.12.

Take `O=[N+]([O-])c1ccc(O)cc1`: the log10 BCF worked out at 0.71.

Compound `CCCCC(CC)COP(=O)(O)OCC(CC)CCCC` (stereo not drawn) registered a log10 BCF of 0.64.

`Clc1cc(Cl)c2c(c1Cl)Oc1ccccc1O2`: the log10 BCF came out at 2.75 and the log10 biotransformation half-life (days) is 0.43.

In general, melting point refers to the temperature, or range, at which the solid turns liquid. In general, boiling point refers to the temperature of boiling at a given pressure.

The values are drawn from the OPERA property sets (Mansouri et al. 2018).
